Legend:
[1] = Mouse Acute Toxicity Assay (oral, 7 days observation); details: in vivo, ICR-type male mice, single forced oral administration 1000 and 2000 mg/kg, estimated from survival ratio
Description: Mouse Acute Toxicity Assay
The present Example was carried out in order to confirm the safety of the novel compound according to the present invention. In the following the assay method used will be explained.
Assay method: After ICR-type male mice (body weight=20~25 g) were fasted for 16 hours, each substance to be tested was forcibly administered orally at 1000 mg/kg and 2000 mg/kg to groups of five mice, using a esophageal sound. After administration, the mice were kept in cages for seven days, following which observations were made on the general conditions and existence of dead animals. From the survival ratio of the mice at the end of the observation, the lethal dose 50 (LD50) was estimated.
The results of the mouse acute toxicity assay are recorded in Tables 1 and 2.

[2] = tested on: Hartley-type male guinea pigs; experiment: Guinea Pig Homogeneous Skin Passive Anaphylaxis Assay (PCA reaction); type: in vivo, guinea pig (Hartley-type)
Outline: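 Inhibition % is derived from Evans Blue leakage area (mm^2, product of spot diameters) read 30 min after i.v. OVA/dye challenge. Beforehand, male Hartley guinea pigs (250~300 g) were passively sensitized intradermally with 120-fold-diluted anti-OVA serum and, after 48 h, received test compound 10 mg/kg p.o.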

[3] = oral administration; cited from earlier work
mice = details: Tranilast, cited from earlier work

`CC(=O)Oc1ccc2oc(=O)c(OC/C=C(\C)CCC=C(C)C)c(O)c2c1` [Compound 271, 3-(geranyloxy)-4-hydroxy-6-(acetoxy)-2H-1-benzopyran-2-one] gave an LD50 at 168 h [1] greater than 1000 mg/kg and an inhibition in vivo at 10 mg/kg ([2]; Cavia porcellus, 10 mg/kg oral, 48 h after sensitization, read-out: Allergic reaction inhibitory index (%)) of 33%.
For `O=C(O)c1cc(=O)c2c(OCC(O)COc3cccc4oc(C(=O)O)cc(=O)c34)cccc2o1` [Disodium Cromoglicate], the “absorption into the living body” value [3] is listed as “difficult to absorb”.
In the case of `COc1ccc(/C=C/C(=O)Nc2ccccc2C(=O)O)cc1OC` [Tranilast, reference compound], the “acute toxic value (LD50)” value (mice; background) is listed as 680 to 780 mg/kg, the LD50 (mice; male mice) is listed as 780 mg/kg and the inhibition in vivo at 100 mg/kg ([2]; Cavia porcellus, positive control, 100 mg/kg oral, 48 h after sensitization, read-out: Allergic reaction inhibitory index (%)) is listed as 52%. The “anti-allergic action, compounds of the invention (10 mg/kg) versus Tranilast (100 mg/kg)” value ([2]; oral) was “approximately equal to or less than the anti-allergic action exhibited by the compounds of the present invention”.

Source: US5428059A, “Benzopyran derivatives and an anti-allergic agent possessing the same as the active ingredient” (Dainippon Ink & Chemicals, Inc., priority 1991, dated 1995)
